Experimental data: the kinase profiling compilation of Christmann-Franck et al. (2016)

Key:
Assay in all cases: radiometric filter-binding kinase assay, Kinase HotSpot
Settings in all cases: compound 0.5 µM; ATP 10 µM
[1] = target: ACVR1B (human) (UniProt P36896)
[2] = target: AURKB (human) (UniProt Q96GD4)
[3] = target: CAMK1 (human) (UniProt Q14012)
[4] = target: CHEK1 (human) (UniProt O14757)
[5] = target: CLK2 (human) (UniProt P49760)
[6] = target: DAPK2 (human) (UniProt Q9UIK4)
[7] = target: EPHA3 (human) (UniProt P29320)
[8] = target: EPHB3 (human) (UniProt P54753)
[9] = target: ERBB2 (human) (UniProt P04626)
[10] = target: FGFR1 (human) (UniProt P11362)
[11] = target: GSK3B (human) (UniProt P49841)
[12] = target: IKBKE (human) (UniProt Q14164)
[13] = target: IRAK1 (human) (UniProt P51617)
[14] = target: MAPK10 (human) (UniProt P53779)
[15] = target: MAPK11 (human) (UniProt Q15759)
[16] = target: MAPKAPK5 (human) (UniProt Q8IW41)
[17] = target: MET (human) (UniProt P08581)
[18] = target: MINK1 (human) (UniProt Q8N4C8)
[19] = target: MKNK2 (human) (UniProt Q9HBH9)
[20] = target: MLTK (human) (UniProt Q9NYL2)
Chain of MLTK (human) (Q9NYL2 whole entry, looked up): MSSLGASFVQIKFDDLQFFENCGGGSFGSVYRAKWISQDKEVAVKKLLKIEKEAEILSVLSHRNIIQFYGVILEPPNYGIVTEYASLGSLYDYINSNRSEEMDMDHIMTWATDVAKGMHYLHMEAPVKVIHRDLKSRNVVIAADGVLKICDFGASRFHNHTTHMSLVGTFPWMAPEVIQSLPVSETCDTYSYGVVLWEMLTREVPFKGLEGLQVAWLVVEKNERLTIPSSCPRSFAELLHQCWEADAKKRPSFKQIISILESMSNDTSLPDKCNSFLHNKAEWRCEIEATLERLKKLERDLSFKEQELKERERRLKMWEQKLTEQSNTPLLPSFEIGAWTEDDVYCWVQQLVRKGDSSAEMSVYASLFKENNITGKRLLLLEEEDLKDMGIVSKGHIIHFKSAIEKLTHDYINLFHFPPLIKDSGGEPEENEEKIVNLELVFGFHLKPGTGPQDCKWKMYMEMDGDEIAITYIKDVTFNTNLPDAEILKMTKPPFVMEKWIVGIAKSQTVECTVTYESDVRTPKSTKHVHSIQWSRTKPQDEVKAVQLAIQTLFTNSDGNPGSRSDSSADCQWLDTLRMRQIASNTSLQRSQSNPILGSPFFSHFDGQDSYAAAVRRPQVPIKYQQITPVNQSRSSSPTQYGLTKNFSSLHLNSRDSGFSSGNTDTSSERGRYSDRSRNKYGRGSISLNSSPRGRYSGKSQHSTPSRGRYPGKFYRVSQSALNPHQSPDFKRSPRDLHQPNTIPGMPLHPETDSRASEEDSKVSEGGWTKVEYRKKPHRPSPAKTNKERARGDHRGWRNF

[21] = target: MST4 (human) (UniProt Q9P289)
[22] = target: MYLK (human) (UniProt Q15746)
[23] = target: MYLK2 (human) (UniProt Q9H1R3)
[24] = target: NEK1 (human) (UniProt Q96PY6)
[25] = target: NEK7 (human) (UniProt Q8TDX7)
[26] = target: PAK4 (human) (UniProt O96013)
Chain of PAK4 (human) (O96013 whole entry, looked up): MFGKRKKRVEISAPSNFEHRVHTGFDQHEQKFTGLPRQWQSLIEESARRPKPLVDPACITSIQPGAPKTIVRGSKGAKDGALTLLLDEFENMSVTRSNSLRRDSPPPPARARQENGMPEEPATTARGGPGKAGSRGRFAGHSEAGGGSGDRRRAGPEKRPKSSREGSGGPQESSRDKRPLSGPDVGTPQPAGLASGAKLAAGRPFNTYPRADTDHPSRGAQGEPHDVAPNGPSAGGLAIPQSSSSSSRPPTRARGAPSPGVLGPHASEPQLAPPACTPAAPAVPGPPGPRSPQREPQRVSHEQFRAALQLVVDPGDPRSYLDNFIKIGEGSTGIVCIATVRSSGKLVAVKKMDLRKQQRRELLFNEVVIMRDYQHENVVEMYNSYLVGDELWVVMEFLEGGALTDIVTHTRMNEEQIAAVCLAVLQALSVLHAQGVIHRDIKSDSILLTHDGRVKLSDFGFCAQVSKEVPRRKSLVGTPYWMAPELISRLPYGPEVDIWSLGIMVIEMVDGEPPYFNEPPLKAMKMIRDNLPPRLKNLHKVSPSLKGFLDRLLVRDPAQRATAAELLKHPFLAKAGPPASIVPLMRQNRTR

[27] = target: PHKG2 (human) (UniProt P15735)
Chain of PHKG2 (human) (P15735 whole entry, looked up): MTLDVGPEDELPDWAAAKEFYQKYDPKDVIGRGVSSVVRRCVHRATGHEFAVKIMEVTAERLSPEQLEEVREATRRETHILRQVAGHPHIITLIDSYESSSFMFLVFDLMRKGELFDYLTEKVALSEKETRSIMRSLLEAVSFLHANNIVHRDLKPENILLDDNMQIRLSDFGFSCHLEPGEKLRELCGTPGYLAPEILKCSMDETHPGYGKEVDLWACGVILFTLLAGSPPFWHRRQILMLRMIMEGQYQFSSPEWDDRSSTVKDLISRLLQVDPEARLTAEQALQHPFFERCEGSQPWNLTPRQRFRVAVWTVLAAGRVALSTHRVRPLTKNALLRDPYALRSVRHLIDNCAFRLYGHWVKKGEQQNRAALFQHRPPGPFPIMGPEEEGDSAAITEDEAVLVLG

[28] = target: PLK1 (human) (UniProt P53350)
[29] = target: PNCK (human) (UniProt Q6P2M8)
[30] = target: PRKCB1 (human) (UniProt P05771)
[31] = target: PRKCI (human) (UniProt P41743)
[32] = target: PRKD2 (human) (UniProt Q9BZL6)
Chain of PRKD2 (human) (Q9BZL6 whole entry, looked up): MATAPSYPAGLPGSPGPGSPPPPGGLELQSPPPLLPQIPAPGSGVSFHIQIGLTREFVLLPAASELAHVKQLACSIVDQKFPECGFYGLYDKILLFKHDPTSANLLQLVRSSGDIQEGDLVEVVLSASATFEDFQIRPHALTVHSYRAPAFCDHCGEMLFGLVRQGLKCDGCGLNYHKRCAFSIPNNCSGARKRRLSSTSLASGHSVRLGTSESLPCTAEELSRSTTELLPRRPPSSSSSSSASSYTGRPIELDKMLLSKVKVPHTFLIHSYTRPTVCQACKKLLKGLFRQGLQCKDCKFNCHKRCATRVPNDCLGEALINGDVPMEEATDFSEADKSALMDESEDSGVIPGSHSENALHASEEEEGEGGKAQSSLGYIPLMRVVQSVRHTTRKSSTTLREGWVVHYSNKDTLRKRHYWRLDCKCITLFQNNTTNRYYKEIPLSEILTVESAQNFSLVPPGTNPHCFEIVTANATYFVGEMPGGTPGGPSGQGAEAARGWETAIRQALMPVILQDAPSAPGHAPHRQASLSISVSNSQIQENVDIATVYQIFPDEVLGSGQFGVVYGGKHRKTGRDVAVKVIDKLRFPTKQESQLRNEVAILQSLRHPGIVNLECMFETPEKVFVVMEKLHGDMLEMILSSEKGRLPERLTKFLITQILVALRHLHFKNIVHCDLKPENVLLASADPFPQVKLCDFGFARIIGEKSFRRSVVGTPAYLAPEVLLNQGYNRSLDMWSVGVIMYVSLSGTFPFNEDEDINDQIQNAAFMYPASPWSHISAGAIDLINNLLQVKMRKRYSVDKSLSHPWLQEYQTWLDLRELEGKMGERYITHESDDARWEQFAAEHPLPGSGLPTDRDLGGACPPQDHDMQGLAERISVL

[33] = target: RET (human) (UniProt P07949)
Chain of RET (human) (P07949 whole entry, looked up): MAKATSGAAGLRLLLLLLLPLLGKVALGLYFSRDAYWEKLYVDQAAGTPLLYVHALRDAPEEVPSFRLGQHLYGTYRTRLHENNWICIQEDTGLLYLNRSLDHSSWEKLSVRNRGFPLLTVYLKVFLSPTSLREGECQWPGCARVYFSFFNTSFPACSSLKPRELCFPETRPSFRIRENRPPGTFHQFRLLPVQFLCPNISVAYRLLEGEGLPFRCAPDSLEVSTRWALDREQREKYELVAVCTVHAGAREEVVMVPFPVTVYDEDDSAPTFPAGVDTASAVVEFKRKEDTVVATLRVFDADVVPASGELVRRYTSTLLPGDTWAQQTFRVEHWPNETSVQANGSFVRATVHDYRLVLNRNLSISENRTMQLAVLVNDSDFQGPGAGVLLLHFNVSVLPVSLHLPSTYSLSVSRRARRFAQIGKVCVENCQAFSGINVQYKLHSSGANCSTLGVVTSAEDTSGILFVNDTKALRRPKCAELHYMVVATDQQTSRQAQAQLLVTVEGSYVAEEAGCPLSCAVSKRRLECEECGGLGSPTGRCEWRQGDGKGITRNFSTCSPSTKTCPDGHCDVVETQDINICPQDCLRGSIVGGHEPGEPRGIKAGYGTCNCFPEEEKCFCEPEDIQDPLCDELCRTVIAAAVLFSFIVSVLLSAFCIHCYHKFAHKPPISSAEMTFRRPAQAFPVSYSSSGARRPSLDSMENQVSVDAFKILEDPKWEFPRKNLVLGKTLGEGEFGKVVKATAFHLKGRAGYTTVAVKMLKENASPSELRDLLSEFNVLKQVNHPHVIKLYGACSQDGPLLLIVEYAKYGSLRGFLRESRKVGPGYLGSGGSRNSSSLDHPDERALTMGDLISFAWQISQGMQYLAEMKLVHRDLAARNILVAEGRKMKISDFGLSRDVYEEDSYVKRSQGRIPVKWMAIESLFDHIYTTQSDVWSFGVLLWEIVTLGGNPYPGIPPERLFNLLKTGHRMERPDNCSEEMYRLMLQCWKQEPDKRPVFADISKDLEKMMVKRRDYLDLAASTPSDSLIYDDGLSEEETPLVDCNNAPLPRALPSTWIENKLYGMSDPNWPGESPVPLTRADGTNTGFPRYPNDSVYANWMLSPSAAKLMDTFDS

[34] = target: RPS6KA3 KD1 KD2 (human) (UniProt P51812)
[35] = target: RPS6KA6 KD1 KD2 (human) (UniProt Q9UK32)
[36] = target: RPS6KB1 (human) (UniProt P23443)
[37] = target: STK25 (human) (UniProt O00506)
[38] = target: STK3 (human) (UniProt Q13188)
[39] = target: STK38 (human) (UniProt Q15208)
Chain of STK38 (human) (Q15208 whole entry, looked up): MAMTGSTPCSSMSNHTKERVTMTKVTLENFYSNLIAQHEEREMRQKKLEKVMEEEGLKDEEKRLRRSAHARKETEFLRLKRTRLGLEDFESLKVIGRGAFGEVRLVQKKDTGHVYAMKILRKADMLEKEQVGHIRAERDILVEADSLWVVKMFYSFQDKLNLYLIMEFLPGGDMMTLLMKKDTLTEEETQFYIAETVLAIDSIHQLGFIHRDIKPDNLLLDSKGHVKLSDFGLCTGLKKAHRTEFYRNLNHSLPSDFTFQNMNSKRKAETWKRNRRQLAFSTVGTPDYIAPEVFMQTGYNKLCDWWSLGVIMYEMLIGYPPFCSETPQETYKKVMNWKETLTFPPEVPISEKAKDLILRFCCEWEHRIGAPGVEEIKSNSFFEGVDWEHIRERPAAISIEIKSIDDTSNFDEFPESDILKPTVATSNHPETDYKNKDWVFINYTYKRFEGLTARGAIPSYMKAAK

[40] = target: TYRO3 (human) (UniProt Q06418)
[41] = target: ULK3 (human) (UniProt Q6PHR2)
[42] = target: YES1 (human) (UniProt P07947)

Chain of ACVR1B (human) (P36896 whole entry, looked up): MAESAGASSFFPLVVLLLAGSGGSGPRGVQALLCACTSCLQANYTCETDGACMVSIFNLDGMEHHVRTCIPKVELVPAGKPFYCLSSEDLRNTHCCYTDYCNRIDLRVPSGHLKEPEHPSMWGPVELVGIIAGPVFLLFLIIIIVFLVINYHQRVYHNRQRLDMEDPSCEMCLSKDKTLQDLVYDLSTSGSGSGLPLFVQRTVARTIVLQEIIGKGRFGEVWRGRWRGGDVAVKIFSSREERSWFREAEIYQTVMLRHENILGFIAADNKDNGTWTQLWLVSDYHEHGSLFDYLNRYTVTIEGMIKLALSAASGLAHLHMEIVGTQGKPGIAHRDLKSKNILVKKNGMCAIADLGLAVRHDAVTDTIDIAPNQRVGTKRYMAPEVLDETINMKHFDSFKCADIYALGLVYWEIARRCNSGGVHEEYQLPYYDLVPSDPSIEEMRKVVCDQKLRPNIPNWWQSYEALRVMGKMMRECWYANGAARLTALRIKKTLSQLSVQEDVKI

CCC(=O)Nc1ccc2ncnc(Nc3cccc(Br)c3)c2c1
residual activity [1]: 96.5% | residual activity [2]: 95.4% | residual activity [3]: 88.9% | residual activity [4]: 114% | residual activity [5]: 101% | residual activity [6]: 121% | residual activity [7]: 106% | residual activity [8]: 89.4% | residual activity [9]: 34% | residual activity [10]: 108% | residual activity [11]: 91.2% | residual activity [12]: 94.9% | residual activity [13]: 92.7% | residual activity [14]: 96.5% | residual activity [15]: 92.9% | residual activity [16]: 105% | residual activity [17]: 103% | residual activity [18]: 95.8% | residual activity [19]: 55.6% | residual activity [20]: 96% | residual activity [21]: 97.6% | residual activity [22]: 95.5% | residual activity [23]: 96.4% | residual activity [24]: 76.9% | residual activity [25]: 92.7% | residual activity [26]: 105% | residual activity [27]: 109% | residual activity [28]: 95.3% | residual activity [29]: 96% | residual activity [30]: 99.2% | residual activity [31]: 106% | residual activity [32]: 85.1% | residual activity [33]: 106% | residual activity [34]: 95% | residual activity [35]: 90.6% | residual activity [36]: 91.2% | residual activity [37]: 102% | residual activity [38]: 88% | residual activity [39]: 100% | residual activity [40]: 101% | residual activity [41]: 97.5% | residual activity [42]: 87%

c1ccc(-c2n[nH]cc2-c2ccnc3ccccc23)nc1
residual activity [1]: 43.2% | residual activity [2]: 96% | residual activity [3]: 96.1% | residual activity [4]: 99.7% | residual activity [5]: 99.4% | residual activity [6]: 102% | residual activity [7]: 99.3% | residual activity [8]: 97.1% | residual activity [9]: 106% | residual activity [10]: 94.2% | residual activity [11]: 95.2% | residual activity [12]: 101% | residual activity [13]: 124% | residual activity [14]: 92.9% | residual activity [15]: 106% | residual activity [16]: 95.6% | residual activity [17]: 94.1% | residual activity [18]: 84.1% | residual activity [19]: 81.9% | residual activity [20]: 78% | residual activity [21]: 83.4% | residual activity [22]: 105% | residual activity [23]: 98.3% | residual activity [25]: 102% | residual activity [26]: 76.9% | residual activity [27]: 97.7% | residual activity [28]: 102% | residual activity [29]: 98.3% | residual activity [30]: 102% | residual activity [31]: 99% | residual activity [32]: 66.9% | residual activity [33]: 93.8% | residual activity [34]: 101% | residual activity [35]: 112% | residual activity [36]: 106% | residual activity [37]: 96.9% | residual activity [38]: 102% | residual activity [39]: 111% | residual activity [40]: 124% | residual activity [41]: 85.3% | residual activity [42]: 93.3%

CNC(=O)c1cc(Oc2ccc(NC(=O)Nc3ccc(Cl)c(C(F)(F)F)c3)cc2)ccn1
residual activity [1]: 102% | residual activity [3]: 106% | residual activity [4]: 173% | residual activity [5]: 92.8% | residual activity [6]: 111% | residual activity [7]: 95.5% | residual activity [8]: 95.5% | residual activity [9]: 103% | residual activity [10]: 90.9% | residual activity [11]: 101% | residual activity [12]: 89.8% | residual activity [13]: 101% | residual activity [14]: 94.2% | residual activity [15]: 46.9% | residual activity [16]: 95.8% | residual activity [17]: 105% | residual activity [18]: 108% | residual activity [19]: 70.3% | residual activity [20]: 16.7% | residual activity [21]: 101% | residual activity [22]: 93.7% | residual activity [23]: 96.1% | residual activity [24]: 88.8% | residual activity [25]: 98.2% | residual activity [26]: 91.8% | residual activity [27]: 91.3% | residual activity [28]: 98.1% | residual activity [29]: 94.7% | residual activity [30]: 95.1% | residual activity [31]: 89.9% | residual activity [32]: 96.2% | residual activity [33]: 1.78% | residual activity [34]: 100% | residual activity [35]: 97.3% | residual activity [36]: 91.4% | residual activity [37]: 104% | residual activity [38]: 96.9% | residual activity [39]: 99.8% | residual activity [40]: 91.7% | residual activity [41]: 103% | residual activity [42]: 82.8%

CCN(CC)CCNC(=O)c1c(C)[nH]c(/C=C2\C(=O)Nc3ccc(F)cc32)c1C
residual activity [1]: 101% | residual activity [2]: 48.7% | residual activity [3]: 75.2% | residual activity [4]: 29.2% | residual activity [5]: 13.6% | residual activity [7]: 84% | residual activity [8]: 77.4% | residual activity [9]: 105% | residual activity [10]: 66.1% | residual activity [11]: 95.8% | residual activity [12]: 45.6% | residual activity [13]: 31.4% | residual activity [14]: 99.5% | residual activity [15]: 99.9% | residual activity [16]: 82.7% | residual activity [17]: 91% | residual activity [18]: 10.5% | residual activity [19]: 99.3% | residual activity [21]: 110% | residual activity [22]: 25.6% | residual activity [23]: 7.74% | residual activity [24]: 72.6% | residual activity [25]: 93.5% | residual activity [26]: 80.9% | residual activity [27]: 20.6% | residual activity [28]: 96.4% | residual activity [29]: 98.5% | residual activity [30]: 90.2% | residual activity [31]: 103% | residual activity [32]: 21.1% | residual activity [33]: 3.43% | residual activity [34]: 35.5% | residual activity [35]: 17.5% | residual activity [36]: 42.3% | residual activity [37]: 76.1% | residual activity [38]: 24.8% | residual activity [39]: 93.8% | residual activity [40]: 28.3% | residual activity [41]: 57.4% | residual activity [42]: 5.91%
